Consider 7 compounds from patent US12441733B2, “Substituted 2,4-dioxotetrahydropyrimidines as intermediates in the synthesis of bruton's tyrosine kinase inhibitors” (Novartis AG, priority 2018, dated 2025).

The target of this test is T1, IKZF3-GFP (Homo sapiens, UniProt Q96SW2+Q9UKT9).
T1 construct: expressed in transfected cells; host or cells: HEK293A (Invitrogen R70507), lentiviral transduction with pLenti6-IKZF3-GFP-Ires-RFP, blasticidin selection
Briefly: IKZF3-GFP protein abundance flow cytometry assay in HEK293A cells. It counts as cell-based. The following applies: HEK293A IKZF3-GFP-iresRFP cells, 24 h; for DC50: GFP signal by flow cytometry; for IKZF3 deg Amax: % protein remaining at maximum degradation. As to the method:
BTK-GFP and IKZF3-GFP protein abundance flow cytometry assay in HEK293A cells:
Degradation of BTK or IKZF3 was measured in HEK293A cells (Invitrogen R70507) expressing either BTK-GFP and RFP or IKZF3-GFP and RFP from a stably integrated bicistronic BTK-GFP-iresRFP or IKZF3-GFP-iresRFP construct, respectively. Reduction of the GFP signal measured by flow cytometry served as readout for BTK or IKZF3 degradation after degrader treatment.
By analogy the bicistronic pLenti6-IKZF3-GFP-iresRFP was engineered by gateway cloning of IKZF3 from a pENTR221-IKZF3(STOP-Leu) construct into the previously described pLenti6-DEST-GFP-Ires-RFP vector using the LR Clonase kit (Invitrogen 11791-019) according to the manufacturer's manual. All vectors described have been sequenced for verification.
ii) Engineering of Stably Expressing 293A BTK-GFP-Ires-RFP and IKZF3-GFP-Ires-RFP Sensor Cells
293A BTK-GFP-Ires-RFP and IKZF3-GFP-ires-RFP sensor cells were generated by lentiviral vector transduction using the pLenti6-BTK-GFP-Ires-RFP or pLenti6-IKZF3-GFP-Ires-RFP sensor construct described before. Lentiviral particles were produced in HEK293FT cells (Invitrogen R70007) by co-transfection of 500 ng pLenti6-BTK-GFP-ires-RFP or pLenti6-IKZF3-GFP-Ires-RFP, 500 ng delta8.71 and 200 ng pVSVG diluted in 100 μl OptiMEM serum free medium (Invitrogen #11058-021) that was mixed after 5 min preincubation with 3 μl of Lipofectamine2000 (Invitrogen #11668-019) in 97 μl OptiMEM serum free medium. The mix was incubated for another 20 min at RT and then added on 1 ml of a freshly prepared suspension of HEK293FT cells in a well of a 6-well plate (concentration 1.2×10^6 cells/ml). 1 day after transfection, the medium was replaced with 1.5 ml of complete growth medium (DMEM high Glucose+10% FCS+1% L-Glutamine+1% NEAA+1% NaPyr.). 48 h post transfection supernatant containing viral transducing particles was collected and frozen at −80° C.
Two days before transduction with viral particles 1×10^5 HEK293A cells (Invitrogen R70507) were seeded in 2 ml growth medium in a well of a 6-well plate. Infection was performed with 90 μl of collected supernatant containing viral transducing particles in 1 ml medium including 8 μg/ml polybrene. 24 h post infection, stably transfected cells were selected with blasticidin at a concentration of 8 μg/ml.
Iii) Quantitative BTK-GFP and IKZF3-GFP Abundance Measurements
Stable HEK293A-BTK-GFP-iresRFP cells were maintained in complete growth medium (DMEM high Glucose+10% FCS+1% L-Glutamine+1% NEAA+1% NaPyr.) with passaging performed twice per week. On Day 0, HEK293A-BTK-GFP-iresRFP or HEK293A-IKZF3-GFP-iresRFP and HEK293A-iresRFP cells were seeded at 10,000 cells/well in a 96-well microtiter plate in 260 μl complete medium. On Day 1, cells were treated in duplicate with 10-point 1:3 dilution series of compound using the HP D300 Digital Dispenser (Tecan). DMSO concentrations were normalized across the plate to 0.1%. On Day 2, after 24 h of incubation at 37° C., treatment media was discarded, cells rinsed with 100 μl/well PBS and then detached using 40 μl trypsin/well for 5 min. Trypsin was neutralized with 100 μl/well PBS+20% FCS). Flow cytometry was performed on the samples using the BD FACS CANTO II (Becton Dickinson). Cell identification was then performed using forward (FSC) vs. side scatter (SSC) plots. […] Median GFP values for 5,000 single cells are used to determine BTK levels. Median GFP values from HEK293A-iresRFP are used as a background signal and thus defining 0% BTK signal. Median GFP values from DMSO treated HEK293A-BTK-GFP-iresRFP or HEK293A-IKZF3-GFP-iresRFP are used to define 100% BTK signal for subsequent DC50 curves (concentration at 50% BTK degradation).
Background: In flow cytometry, cells or beads pass a laser one at a time.

Molecules are shown by their SMILES.

T1 sequence (Q9UKT9 whole entry): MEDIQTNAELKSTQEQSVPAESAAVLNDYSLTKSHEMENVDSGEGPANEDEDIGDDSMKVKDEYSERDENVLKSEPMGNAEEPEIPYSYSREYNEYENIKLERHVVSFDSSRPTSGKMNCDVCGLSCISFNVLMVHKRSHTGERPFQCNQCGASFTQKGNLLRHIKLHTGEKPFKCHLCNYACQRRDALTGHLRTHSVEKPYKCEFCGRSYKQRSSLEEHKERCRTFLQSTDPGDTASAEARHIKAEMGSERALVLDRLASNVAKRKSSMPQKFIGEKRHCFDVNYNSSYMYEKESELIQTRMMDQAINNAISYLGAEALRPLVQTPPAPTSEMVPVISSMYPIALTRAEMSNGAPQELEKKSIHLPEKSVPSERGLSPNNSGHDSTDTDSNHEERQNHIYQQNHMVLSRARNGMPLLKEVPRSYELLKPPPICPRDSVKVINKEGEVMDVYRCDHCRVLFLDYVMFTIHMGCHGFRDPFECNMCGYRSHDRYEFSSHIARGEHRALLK
T1 sequence (Q96SW2 whole entry): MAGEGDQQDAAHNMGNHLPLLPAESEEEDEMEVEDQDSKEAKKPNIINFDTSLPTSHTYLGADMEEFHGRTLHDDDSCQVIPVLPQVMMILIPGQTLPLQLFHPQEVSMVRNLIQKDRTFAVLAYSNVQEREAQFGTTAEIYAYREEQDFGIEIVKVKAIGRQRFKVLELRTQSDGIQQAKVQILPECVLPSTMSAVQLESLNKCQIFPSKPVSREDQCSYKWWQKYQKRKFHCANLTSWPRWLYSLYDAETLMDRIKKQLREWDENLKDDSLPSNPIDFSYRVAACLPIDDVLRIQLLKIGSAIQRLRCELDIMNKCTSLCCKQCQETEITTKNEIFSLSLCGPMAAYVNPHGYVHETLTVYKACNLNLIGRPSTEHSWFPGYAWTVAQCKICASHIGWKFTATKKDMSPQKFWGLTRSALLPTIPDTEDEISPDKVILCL
T1 sequence (Q16531 whole entry partner): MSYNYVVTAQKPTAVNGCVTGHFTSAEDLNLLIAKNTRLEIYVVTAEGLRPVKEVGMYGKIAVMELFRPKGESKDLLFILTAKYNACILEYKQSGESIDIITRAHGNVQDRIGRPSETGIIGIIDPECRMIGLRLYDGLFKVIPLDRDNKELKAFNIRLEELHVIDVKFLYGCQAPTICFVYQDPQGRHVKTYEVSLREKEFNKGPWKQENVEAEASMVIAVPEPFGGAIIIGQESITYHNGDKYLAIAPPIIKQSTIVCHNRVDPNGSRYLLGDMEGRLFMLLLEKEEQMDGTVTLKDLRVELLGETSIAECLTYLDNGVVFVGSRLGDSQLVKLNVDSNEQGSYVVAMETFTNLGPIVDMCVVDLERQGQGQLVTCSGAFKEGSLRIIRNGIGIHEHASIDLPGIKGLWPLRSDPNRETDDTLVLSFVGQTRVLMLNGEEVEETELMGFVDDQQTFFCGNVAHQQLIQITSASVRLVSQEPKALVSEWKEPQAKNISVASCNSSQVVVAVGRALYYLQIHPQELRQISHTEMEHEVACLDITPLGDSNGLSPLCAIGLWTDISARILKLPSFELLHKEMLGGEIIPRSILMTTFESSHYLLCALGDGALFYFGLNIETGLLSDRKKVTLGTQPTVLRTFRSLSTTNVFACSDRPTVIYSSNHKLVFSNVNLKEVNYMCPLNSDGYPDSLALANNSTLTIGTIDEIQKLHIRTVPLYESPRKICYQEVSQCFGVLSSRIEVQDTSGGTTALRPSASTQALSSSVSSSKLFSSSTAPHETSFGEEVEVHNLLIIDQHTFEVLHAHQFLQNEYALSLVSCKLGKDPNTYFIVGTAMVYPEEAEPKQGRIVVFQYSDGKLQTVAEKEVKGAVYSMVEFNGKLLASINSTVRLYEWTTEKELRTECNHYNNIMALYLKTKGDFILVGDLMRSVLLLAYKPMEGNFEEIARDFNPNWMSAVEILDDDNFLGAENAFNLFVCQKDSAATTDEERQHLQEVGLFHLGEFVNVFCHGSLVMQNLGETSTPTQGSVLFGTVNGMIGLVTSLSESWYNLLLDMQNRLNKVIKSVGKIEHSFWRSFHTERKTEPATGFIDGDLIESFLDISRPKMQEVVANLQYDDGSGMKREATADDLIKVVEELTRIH

Take `Cc1cc(F)c(C(=O)NCCCCCNCc2ccc(-c3cc4c(-c5cc(F)cc(NC(=O)c6ccc(C(C)(C)O)cc6F)c5C)ncnc4[nH]3)cc2)cc1N1CCC(=O)NC1=O` [Compound 29, 5-(2,4-Dioxotetrahydropyrimidin-1(2H)-yl)-2-fluoro-N—(S-((4-(4-(5-fluoro-3-(2-fluoro-4-(2-hydroxypropan-2-yl)benzamido)-2-methylphenyl)-7H-pyrrolo[2,3-d]pyrimidin-6-yl)benzyl)amino)pentyl)-4-methylbenzamide]: the DC50 is greater than 3.3 µM and the “IKZF3 deg Amax” value turned out to be 98.6%.

On to `Cc1ccc(C(=O)N(C)CCCCCNCc2ccc(-c3cc4c(-c5cc(F)cc(NC(=O)c6ccc(C(C)(C)O)cc6F)c5C)ncnc4[nH]3)cc2)cc1N1CCC(=O)NC1=O` [Compound 30, 3-(2,4-Dioxotetrahydropyrimidin-1(2H)-yl)-N-(5-((4-(4-(5-fluoro-3-(2-fluoro-4-(2-hydroxypropan-2-yl)benzamido)-2-methylphenyl)-7H-pyrrolo[2,3-d]pyrimidin-6-yl)benzyl)amino)pentyl)-N,4-dimethylbenzamide], for which the DC50 is greater than 3.3 µM and the “IKZF3 deg Amax” value was found to be 101.1%.

Turning to `COc1ccc(C(=O)N2CCC3(CCN(CCc4ccc(-c5cc6c(-c7cc(F)cc(NC(=O)c8ccc(C(C)(C)O)cc8F)c7C)ncnc6[nH]5)cc4)CC3)CC2)cc1N1CCC(=O)NC1=O` [Compound 31, N-(3-(6-(4-(2-(9-(3-(2,4-Dioxotetrahydropyrimidin-1(2H)-yl)-4-methoxybenzoyl)-3,9-diazaspiro[5.5]undecan-3-yl)ethyl)phenyl)-7H-pyrrolo[2,3-d]pyrimidin-4-yl)-5-fluoro-2-methylphenyl)-2-fluoro-4-(2-hydroxypropan-2-yl)benzamide], the DC50 is greater than 5.5 µM and the “IKZF3 deg Amax” value came out at 99.8%.

In the case of `COc1ccc(C(=O)N2CCC(OC3CCN(CCc4ccc(-c5cc6c(-c7cc(F)cc(NC(=O)c8ccc(C(C)(C)O)cc8F)c7C)ncnc6[nH]5)cc4)CC3)CC2)cc1N1CCC(=O)NC1=O` [Compound 34, N-(3-(6-(4-(2-(4-((1-(3-(2,4-Dioxotetrahydropyrimidin-1(2H)-yl)-4-methoxybenzoyl)piperidin-4-yl)oxyl)piperidin-1-yl)ethyl)phenyl)-7H-pyrrolo[2,3-d]pyrimidin-4-yl)-5-fluoro-2-methylphenyl)-2-fluoro-4-(2-hydroxypropan-2-yl)benzamide], the DC50 is greater than 10 µM and the “IKZF3 deg Amax” value amounted to 94.7%.

For the compound `COc1ccc(C(=O)NCCN2CCOC3(CCN(Cc4ccc(-c5cc6c(-c7cc(F)cc(NC(=O)c8ccc(C(C)(C)O)cc8F)c7C)ncnc6[nH]5)cc4)CC3)C2)cc1N1CCC(=O)NC1=O` [Compound 39, N-(3-(6-(4-((4-(2-(3-(2,4-dioxotetrahydropyrimidin-1(2H)-yl)-4-methoxybenzamido)ethyl)-1-oxa-4,9-diazaspiro[5.5]undecan-9-yl)methyl)phenyl)-7H-pyrrolo[2,3-d]pyrimidin-4-yl)-5-fluoro-2-methylphenyl)-2-fluoro-4-(2-hydroxypropan-2-yl)benzamide], the DC50 is greater than 10 µM and the “IKZF3 deg Amax” value is listed as 94.5%.

`COc1ccc(C(=O)NCCN2CCC3(CC2)CCN(Cc2ccc(-c4cc5c(-c6cc(F)cc(NC(=O)c7ccc(C(C)(C)O)cc7F)c6C)ncnc5[nH]4)cc2)CC3)cc1N1CCC(=O)NC1=O` [Compound 44, N-(3-(6-(4-((9-(2-(3-(2,4-dioxotetrahydropyrimidin-1(2H)-yl)-4-methoxybenzamido)ethyl)-3,9-diazaspiro[5.5]undecan-3-yl)methyl)phenyl)-7H-pyrrolo[2,3-d]pyrimidin-4-yl)-5-fluoro-2-methylphenyl)-2-fluoro-4-(2-hydroxypropan-2-yl)benzamide]: the DC50 is greater than 3.3 µM and the “IKZF3 deg Amax” value amounted to 99.7%.

On to `Cc1c(NC(=O)c2ccc(C(C)(C)O)cc2F)cc(F)cc1-c1ncnc2[nH]c(-c3ccc(CCN4CCC5(CC4)CCN(C(=O)c4ccc(F)c(N6CCC(=O)NC6=O)c4)CC5)cc3)cc12` [Compound 47, N-(3-(6-(4-(2-(9-(3-(2,4-dioxotetrahydropyrimidin-1(2H)-yl)-4-fluorobenzoyl)-3,9-diazaspiro[5.5]undecan-3-yl)ethyl)phenyl)-7H-pyrrolo[2,3-d]pyrimidin-4-yl)-5-fluoro-2-methylphenyl)-2-fluoro-4-(2-hydroxypropan-2-yl)benzamide], for which the DC50 was greater than 1.1 µM and the “IKZF3 deg Amax” value was found to be 99.7%.
